Data reported in patent US5208243A, “5-isoquinolinesulfonamides” (Adir et Compagnie, priority 1991, dated 1993).
Structures can show the parent of a compound that is named as a salt. Where two headings read alike, the source gives them in different places. Values belong to the molecule of their own block, whether it stands above or below them.

Assays:
rat aortas = experiment: Contraction of rat aortas induced by potassium depolarization (hyperpotassium medium); parameters: species or system WISTAR rat; details: read-out: IC50 (concentration inhibiting by 50% the contraction of rat aortas induced by potassium depolarization)
Source text: The rings are linked to a STATHAM tension sensor (UC2-GOULD).

rabbit aorta [1] = experiment: Contraction of rabbit aorta induced by phorbol ester in a normal physiological medium; parameters: species or system New Zealand rabbit; details: Oryctolagus cuniculus, TPA 10^-5 M, read-out: IC50, phorbol ester stimulus
Protocol: (§1) Studies are carried out on rings, 3 mm in length, […] The vascular rings are immersed in a normal physiological solution or in a physiological solution lacking calcium (+0.2 mM of the chelating agent EGTA), which is thermostatically regulated at 37° C. and aerated with a 95% O2 +5% CO2 mixture. The rings are linked to a STATHAM tension sensor (UC2-GOULD). The optimal tension for each vessel is applied and a stabilization period of 90 min is observed for the preparations. a) Antivasoconstrictive activity of the compounds of the invention in a physiological medium.

rabbit aorta [2] = experiment: Vascular contraction of rabbit aorta induced by PDGF; parameters: species or system New Zealand rabbit; details: Oryctolagus cuniculus, 10^-5 M, preincubated 15 minutes
Protocol: as §1

rabbit aorta [3] = experiment: Contraction of rabbit aorta induced by endothelin in a normal physiological medium; parameters: species or system New Zealand rabbit; details: Oryctolagus cuniculus, read-out: IC50, endothelin stimulus
Protocol: as §1

rabbit aorta [4] = experiment: Contraction of rabbit aorta induced by angiotensin II in a medium without calcium; parameters: species or system New Zealand rabbit; details: Oryctolagus cuniculus, 10^-5 M, medium lacking calcium
Protocol: as §1, with “b)” for “a)”, “medium without calcium.” for “physiological medium.”

rabbit mesenteric artery = experiment: Contraction of rabbit mesenteric artery induced by electrical stimulation; parameters: species or system New Zealand rabbit; details: Oryctolagus cuniculus, normal physiological medium
Protocol: as §1

rabbit aortas = experiment: Contraction of rabbit aortas induced by noradrenaline in a medium without calcium; parameters: species or system New Zealand rabbit; details: Oryctolagus cuniculus, 0.5 h, rabbit aorta, incubated 30 minutes; for inhibition at 1 µM: compound 10^-6 M; for inhibition at 0.1 µM: compound 10^-7 M
Protocol: as §1, with “b)” for “a)”, “medium without calcium.” for “physiological medium.”

isolated heart = experiment: Isolated heart subjected to an ischemia-reperfusion sequence; parameters: species or system WISTAR rat; details: Rattus norvegicus, concentration of 810^-7 M (so in the source)
Protocol: b) Protective effect of the compounds of the invention on an isolated heart subjected to an ischemia-reperfusion sequence.
The heart is removed from WISTAR rats (325-375 g). The heart is rapidly perfused according to the technique of LANGENDORFF at a constant pressure of 101.310^2 Pa and electrically stimulated at 5 Hz.
The heart is subjected to a 30 min ischemia (produced by complete stoppage of the perfusion) followed by a 60 min reperfusion. The test compounds are incubated for 15 min before the ischemia.
Isovolumetric contractions are recorded by means of a polyethylene ballonet linked to a pressure sensor (P23-GOULD) introduced into the left ventricle and inflated so as to obtain a diastolic pressure of between 6.710^2 and 13.310^2 Pa.

rabbit aorta [5] = experiment: Contraction of rabbit aorta induced by endothelin in a medium without calcium; parameters: species or system New Zealand rabbit; details: Oryctolagus cuniculus, 10^-5 M, medium lacking calcium
Protocol: as §1, with “b)” for “a)”, “medium without calcium.” for “physiological medium.”

rabbit aorta [6] = experiment: Contraction of rabbit aorta induced by phorbol ester in a medium without calcium; parameters: species or system New Zealand rabbit; details: Oryctolagus cuniculus, 10^-5 M, medium lacking calcium
Protocol: as §1, with “b)” for “a)”, “medium without calcium.” for “physiological medium.”

pig coronary artery = experiment: Vascular contraction of pig coronary artery induced by acetylcholine; details: Sus scrofa, 10^-5 M, preincubated 15 minutes
Protocol: Studies are carried out on rings, 3 mm in length, - or of coronary arteries from pigs anesthetized with nesdonal (8 mg/kg intravenously). The vascular rings are immersed in a normal physiological solution or in a physiological solution lacking calcium (+0.2 mM of the chelating agent EGTA), which is thermostatically regulated at 37° C. and aerated with a 95% O2 +5% CO2 mixture. The rings are linked to a STATHAM tension sensor (UC2-GOULD). The optimal tension for each vessel is applied and a stabilization period of 90 min is observed for the preparations. a) Antivasoconstrictive activity of the compounds of the invention in a physiological medium.

guinea pig left auricle [7] = experiment: Ouabain intoxication of guinea pig left auricle; details: compound 10^-6 M
[8] = test system: smooth muscle cells of the aorta; experiment: Proliferation rate after endothelial denudation of the aorta (3H-thymidine incorporation); assay type: in vivo, WISTAR rat; details: 10 mg/kg orally, daily
Protocol: D/ Effect of the compounds of the invention on the proliferation rate after endothelial denudation. […] After pretreatment for 6 days (J6), denudation of the aortic endothelium of the animals is performed according to the following method: After anesthetizing the animal with methohexital (Brietal, 60 mg/kg intraperitoneally), an embolectomy probe (Fogarty 2F) is introduced into the aorta through the left carotid. Aortic deendothelialization is achieved by three successive passages of the probe. Three days after the endothelial denudation (J9), the rats are sacrificed and the aorta is removed, incubated in a physiological solution for 1 hour at 37° C., and then transferred into a ^3 H-thymidine-enriched Krebs- Henseleit solution (specific activity: […]) for 1 hour at 37° C. This is followed by a one-hour post-incubation in a Krebs-Henseleit solution lacking ^3 H-thymidine. After washing in a Tris-EDTA buffer, the proliferation rate is calculated from the incorporation of 3H-thymidine. [drawing 17]

guinea pig left auricle [9] = experiment: Veratridine intoxication of guinea pig left auricle; details: compound 10^-5 M
Protocol: a) Effect of the compounds of the invention on the intoxication of guinea pig left auricle.
The left auricles are removed from guinea pigs (350-450 g) anesthetized with sodium pentobarbital (30 mg/kg). The auricles are attached to a STATHAM tension sensor (UC2-GOULD) and the initial tension applied is 0.5 grams.
The auricles are electrically stimulated at 1 Hz by means of platinum electrodes. The intoxications are produced either by the addition of ouabain (10^-6 M) or by the addition of veratridine (10^-5 M). The test compounds are added 15 minutes before adding the toxic agent.

rabbit aorta [10] = experiment: Contraction of rabbit aorta induced by noradrenaline in a normal physiological medium; parameters: species or system New Zealand rabbit; details: Oryctolagus cuniculus, noradrenaline 10^-6 M, read-out: IC50, noradrenaline stimulus
Protocol: as §1

Rabbit iliac artery = experiment: Contraction of rabbit iliac artery induced by caffeine in a medium without calcium; parameters: species or system New Zealand rabbit; details: Oryctolagus cuniculus, 10^-5 M, medium lacking calcium
Protocol: as §1, with “b)” for “a)”, “medium without calcium.” for “physiological medium.”

SMILES: CN(C1CCN(CCCCOc2ccc(F)cc2)CC1)S(=O)(=O)c1cccc2cnccc12 [Example 1, N-Methyl-N-{1-[4-(pfluorophenoxy)butyl]-4-piperidyl}-5-isoquinolinesulfonamide fumarate]
- IC50 (rat aortas): 850 nM
- IC50 (rabbit aorta [1]): 300000 nM
- inhibition at 10 µM (rabbit aorta [2]): 20%
- IC50 (rabbit aorta [3]): 8100 nM
- inhibition at 10 µM (rabbit aorta [4]): 40%
- IC50 (rabbit mesenteric artery): 400 nM
- inhibition at 1 µM (rabbit aortas): 61%
- inhibition at 0.8 µM (isolated heart; 0.5 h, read-out: reduction of the contracture developed after 30 minutes of ischemia, relative to control): 47%
- activation at 0.8 µM (isolated heart; 1 h, end of 60 minutes of reperfusion, read-out: improvement of the functional recuperation of the hearts relative to control): 55%
- inhibition at 10 µM (rabbit aorta [5]): 42%
- inhibition at 10 µM (rabbit aorta [6]): 66%
- inhibition at 10 µM (pig coronary artery): 61%
- % contraction (guinea pig left auricle [7]; 10 min): 192 ± 29%
- Contracture (%) (guinea pig left auricle [7]; 15 min): 0%
- % contraction (guinea pig left auricle [7]; 30 min): 187.5 ± 30%
- Contracture (%) (guinea pig left auricle [7]; 30 min): 1.9 ± 1.9%
- % contraction (guinea pig left auricle [7]; 60 min): 148.3 ± 33%
- Contracture (%) (guinea pig left auricle [7]; 60 min): 18 ± 7%
- reduction of the proliferation of smooth muscle cells [8]: 40%
- % contraction (guinea pig left auricle [9]; 5 min): 158 ± 11%
- % contraction (guinea pig left auricle [9]; 15 min): 60.5 ± 13%
- Contracture (%) (guinea pig left auricle [9]; 15 min): 23.5 ± 6.2%
- Contracture (%) (guinea pig left auricle [9]; 30 min): 52.2 ± 4.7%
- % contraction (guinea pig left auricle [9]; 60 min): 20.5 ± 4.6%
- Contracture (%) (guinea pig left auricle [9]; 60 min): 60.7 ± 4.4%
- IC50 (rabbit aorta [10]): 1400 nM
- inhibition at 10 µM (Rabbit iliac artery): 30%

SMILES: CN(C1CCN(CCCCOc2ccc([N+](=O)[O-])cc2)CC1)S(=O)(=O)c1cccc2cnccc12 [Example 2, N-Methyl-N-{1-[4-(p-nitrophenoxy)butyl]-4-piperidyl}-5-isoquinolinesulfonamide fumarate]
- IC50 (rat aortas; 80 mM KCl, 37 mM NaCl): 1300 nM
- inhibition at 1 µM (rabbit aortas): 12%

SMILES: CN(C1CCN(CCCCOc2ccccc2)CC1)S(=O)(=O)c1cccc2cnccc12 [Example 3, N-Methyl-N-{1-[4-(phenoxy)butyl]4-piperidyl}-5 isoquinolinesulfonamide fumarate]
- IC50 (rat aortas; 80 mM KCl, 37 mM NaCl): 1700 nM
- inhibition at 1 µM (rabbit aortas): 47%

SMILES: COc1ccc(OCCCCN2CCC(N(C)S(=O)(=O)c3cccc4cnccc34)CC2)cc1 [Example 7, N-Methyl-N-{1-[4-(p-methoxyphenoxy)butyl]-4-piperidyl}-5-isoquinolinesulfonamide hydrochloride]
- IC50 (rat aortas; 80 mM KCl, 37 mM NaCl): 1900 nM
- inhibition at 1 µM (rabbit aortas): 13%

SMILES: CN(C1CCN(CCCCOc2ccc(C#N)cc2)CC1)S(=O)(=O)c1cccc2cnccc12 [Example 8, N-Methyl N-{1-[4-(p-cyanophenoxy)butyl]4-piperidyl}-5-isoquinolinesulfonamide dihydrochloride]
- IC50 (rat aortas; 80 mM KCl, 37 mM NaCl): 950 nM

SMILES: CN(CC1CCN(CCCNc2ccc(F)cc2)CC1)S(=O)(=O)c1cccc2cnccc12 [Example 25, N-Methyl-N-{1-[3-(p-fluorophenylamino)propyl]-4-piperidyl]methyl}-5-isoquinolinesulfonamide fumarate]
- inhibition at 1 µM (rabbit aortas): 77%
- inhibition at 0.1 µM (rabbit aortas): 22%

Now from value to molecule, other results behind:

- IC50 (rat aortas; 80 mM KCl, 37 mM NaCl): 1100 nM
SMILES: CN(C1CCN(CCCCOc2ccc(Cl)cc2)CC1)S(=O)(=O)c1cccc2cnccc12 [Example 6, N-Methyl-N-{1-[4-(p-chlorophenoxy)butyl4-piperidyl}-5-isoquinolinesulfonamide hydrochloride]
- inhibition at 1 µM (rabbit aortas): 18%

- IC50 (rat aortas; 80 mM KCl, 37 mM NaCl): 1300 nM
SMILES: CN(C1CCN(CCCCSc2ccc(F)cc2)CC1)S(=O)(=O)c1cccc2cnccc12 [Example 12, N-Methyl-N-{1-[4-(p-fluorophenylthio)butyl]-4-piperidyl}-5-isoquinolinesulfonamide dihydrochloride]
- inhibition at 1 µM (rabbit aortas): 19%

- IC50 (rat aortas; 80 mM KCl, 37 mM NaCl): 2900 nM
SMILES: O=S(=O)(NC1CCN(CCCCOc2ccc(F)cc2)CC1)c1cccc2cnccc12 [Example 13, N-{1-[4-(p-fluorophenoxy)butyl]4-piperidyl)}-5-isoquinolinesulfonamide dihydrochloride]
- inhibition at 1 µM (rabbit aortas): 42%

- IC50 (rat aortas; 80 mM KCl, 37 mM NaCl): 3500 nM
SMILES: O=S(=O)(NCC1CCN(CCCOc2ccc(F)cc2)CC1)c1cccc2cnccc12 [Example 15, N-{[1-[3-(p-Fluorophenoxy)propyl]-4-piperidyl]methyl}-5-isoquinolinesulfonamide]
- inhibition at 1 µM (rabbit aortas): 59%

- IC50 (rat aortas; 80 mM KCl, 37 mM NaCl): 2800 nM
SMILES: CN(CC1CCN(CCCOc2ccccc2)CC1)S(=O)(=O)c1cccc2cnccc12 [Example 19, N-Methyl-N-{[1-[3-(phenoxy)propyl]-4-piperidyl]methyl}-5-isoquinolinesufonamide]
- inhibition at 1 µM (rabbit aortas): 67%
- inhibition at 0.1 µM (rabbit aortas): 31%

- IC50 (rat aortas; 80 mM KCl, 37 mM NaCl): 1900 nM
SMILES: CN(CC1CCN(CCCCOc2ccc(F)cc2)C1)S(=O)(=O)c1cccc2cnccc12 (stereo not shown) [Example 21, N-Methyl-N-{[1-[4-(p-fluorophenoxy)butyl]-3-pyrrolidinyl]methyl}-5-isoquinolinesulfonamide dihydrochloride]
- inhibition at 1 µM (rabbit aortas): 73%
- inhibition at 0.1 µM (rabbit aortas): 17%

- IC50 (rat aortas; 80 mM KCl, 37 mM NaCl): 3600 nM
SMILES: CN(CC1CCN(CCCOc2ccc(F)cc2)C1)S(=O)(=O)c1cccc2cnccc12 (stereo not shown) [Example 22, N-Methyl-N-{[1-[3-(p-fluorophenoxy)propyl]-3-pyrrolidinyl]methyl}-5-isoquinolinesulfonamide dihydrochloride]
- inhibition at 1 µM (rabbit aortas): 82%
- inhibition at 0.1 µM (rabbit aortas): 43%

- IC50 (rat aortas; 80 mM KCl, 37 mM NaCl): 4500 nM
SMILES: O=S(=O)(NCC1CCN(CCCNc2ccc(F)cc2)CC1)c1cccc2cnccc12 [Example 24, N-{[1-[3-(p-fluorophenylamino)propyl]-4-piperidyl]methyl}-5-isoquinolinesulfonamide fumarate]
- inhibition at 1 µM (rabbit aortas): 67%
- inhibition at 0.1 µM (rabbit aortas): 38%

- IC50 (rat aortas; 80 mM KCl, 37 mM NaCl): 5300 nM
SMILES: CCN(C1CCN(CCCCOc2ccc(F)cc2)CC1)S(=O)(=O)c1cccc2cnccc12 [Example 26, N-Ethyl-N-{1-[4-(p-fluorophenoxy)butyl]-4-piperidyl}-5-isoquinolinesulfonamide dihydrochloride]
- inhibition at 1 µM (rabbit aortas): 26%
